Where two headings read alike, the source gives them in different places.
How the values were obtained:
[1] = molecular target: T1, tissue transglutaminase (TG2), C-terminal His-tag TG2 (Homo sapiens, UniProt P21980); assay: continuous AL5 hydrolysis assay of irreversible TG2 inhibition (kobs vs [I]/α); format: biochemical
T1 construct: host or cells: Novagen Rosetta 2 (DE3) E. coli
T1 sequence (P21980 1-687): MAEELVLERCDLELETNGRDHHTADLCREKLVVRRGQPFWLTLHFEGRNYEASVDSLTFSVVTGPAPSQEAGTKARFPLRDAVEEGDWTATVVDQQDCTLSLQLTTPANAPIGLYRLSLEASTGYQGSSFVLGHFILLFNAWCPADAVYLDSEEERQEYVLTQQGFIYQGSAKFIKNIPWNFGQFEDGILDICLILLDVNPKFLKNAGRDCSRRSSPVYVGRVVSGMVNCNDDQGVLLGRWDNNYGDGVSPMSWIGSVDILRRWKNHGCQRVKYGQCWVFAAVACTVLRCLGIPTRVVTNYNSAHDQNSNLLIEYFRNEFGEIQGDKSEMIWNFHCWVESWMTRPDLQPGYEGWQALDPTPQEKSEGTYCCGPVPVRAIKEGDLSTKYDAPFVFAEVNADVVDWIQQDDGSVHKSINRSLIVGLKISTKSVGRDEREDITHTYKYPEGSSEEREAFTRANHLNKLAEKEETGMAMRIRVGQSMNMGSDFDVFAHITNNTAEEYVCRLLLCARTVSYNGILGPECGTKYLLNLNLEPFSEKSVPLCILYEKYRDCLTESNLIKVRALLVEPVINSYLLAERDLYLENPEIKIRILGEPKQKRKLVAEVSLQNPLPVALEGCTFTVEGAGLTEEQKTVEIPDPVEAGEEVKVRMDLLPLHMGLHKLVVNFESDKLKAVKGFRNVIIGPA

[2] = solubility in inhibition assay conditions and stock solutions; format: physicochemical; conditions: inhibition assay mixture, DMSO not above 6%
[3] = stability in human hepatocytes, at Pharmaron; format: in vitro ADME; conditions: 20-donor, pooled; for hepatocyte CLint: read-out: In vitro CLint; for half-life: human, hepatocytes, read-out: In vitro t1/2
[4] = parallel artificial membrane permeability assay (PAMPA), at Pharmaron; format: in vitro ADME
[5] = incubation in phosphate buffer with no hepatocytes present; format: physicochemical; conditions: phosphate buffer 0.1 M, pH = 8.0, no hepatocytes present
[6] = system: human hepatocytes; parameters: method as in PMID 36846370; conditions: cited from earlier work
[7] = system: MDCK-MDR1 cells; parameters: method as in PMID 39708924; conditions: cited from earlier work
[8] = inhibition efficiency, combined from kinact and KI
[9] = irreversible inhibition, AL5 100 μM, pH 6.9, 25 °C, triplicate
[10] = supplement, kinetics data and fitting
[11] = Pe in cm s^−1, lower value is more permeable, read-out: −log[Pe (cm s^−1)] (converted)

| Structure (SMILES) | kinact [1] [s⁻¹] | KI (inactivation) [1, 9] [nM] | KI (inactivation) [1, 10] [nM] | kinact/KI [1, 10] | Papp [4, 11] [×10⁻⁶ cm/s] | other results |
| --- | --- | --- | --- | --- | --- | --- |
| C=CC(=O)NCC(=O)N1CCN(C(=O)c2ccc(Oc3ccccc3)cc2)CC1 [Compound 22h, N-2-[4-[((4-Phenoxyphenyl)carbonyl)-1-piperazinyl]-2-oxoethyl]propenamide] | – | – | – | – | – | kinact/KI [1, 8]: INS.; KI [1, 9]: INS.; kinact [1, 9]: INS.; solubility in assay conditions [2]: too insoluble in assay conditions |
| C=CC(=O)NCC(=O)N1CCN(C(=O)C23CC4CC(CC(Cl)(C4)C2)C3)CC1 [Compound 25b, N-2-[4-[(3-Chloroadamantanecarbonyl)-1-piperazinyl]-2-oxoethyl]propenamide] | 0.0282 | 1790 ± 170 | 1790 ± 170 | 941 ± 101 × 103 M-1min-1 | – | hepatocyte CLint [3]: 6.91 µL/min/1e6 cells; half-life [3]: 200 min; −log[Pe (cm s^−1)] ([4]; Pe in cm s^−1, lower value is more permeable): 5.85; Papp ([4]; read-out: Pe): 1.41 ×10⁻⁶ cm/s |
| C=CC(=O)NCC(=O)N1CCN(C(=O)C23CC4CC(C2)CC(c2ccccc2)(C4)C3)CC1 [Compound 25d, N-2-[4-[(3-Phenyladamantanecarbonyl)-1-piperazinyl]-2-oxoethyl]propenamide] | 0.0112 | 690 ± 70 | 691 ± 67 | 972 ± 103 × 103 M-1min-1 | 13.2 | hepatocyte CLint [3]: 29.3 µL/min/1e6 cells; half-life [3]: ~47 min |
| C=CC(=O)NCC(=O)N1CCN(C(=O)C23CC4CC(CC(I)(C4)C2)C3)CC1 [Compound 29, N-2-[4-[(3-Iodoadamantanecarbonyl)-1-piperazinyl]-2-oxoethyl]propenamide] | 0.0278 | 1400 ± 120 | 1400 ± 120 | 1195 ± 112 × 103 M-1min-1 | 5.25 | stability in phosphate buffer [5]: degrade after 24 hours; hepatocyte CLint [3]: 69.2 µL/min/1e6 cells; half-life [3]: 20 min |
| C=CC(=O)NCC(=O)N1CCN(C(=O)C23CC4CC(CC(Br)(C4)C2)C3)CC1 [Compound 25c, N-2-[4-[(3-Bromoadamantanecarbonyl)-1-piperazinyl]-2-oxoethyl]propenamide] | 0.0119 | 650 ± 80 | 648 ± 85 | 1104 ± 162 × 103 M-1min-1 | 2.19 | stability in phosphate buffer [5]: degrade after 24 hours |
| C=CC(=O)NCC(=O)N1CCN(C(=O)c2ccc(-c3ccccc3C)cc2)CC1 [Compound 21g, N-2-[4-[((2′-Methyl-4-biphenyl)carbonyl)-1-piperazinyl]-2-oxoethyl]propenamide] | 0.0217 | 54100 ± 14600 | 54100 ± 14600 | 24.1 ± 7.3 × 103 M-1min-1 | – | – |
| C=CC(=O)NCC(=O)N1CCN(C(=O)C23CC4CC(CC(C4)C2)C3)CC1 [EB-2-16, reference compound] | 0.0233 | 2430 ± 190 | 2430 ± 190 | 576 ± 50 × 103 M-1min-1 | 1.55 | In vitro t1/2 [6]: >120 (ref. [27]) min; susceptibility to P-glycoprotein-mediated efflux ([7]; MDCK-MDR1 cells): not susceptible to P-glycoprotein-mediated efflux; diffusion across the membrane of MDCK-MDR1 cells ([7]; bidirectional): excellent bidirectional diffusion |
| C=CC(=O)NCC(=O)N1CCN(C(=O)c2ccc(-c3ccc(C)cc3)cc2)CC1 [Compound 21i, N-2-[4-[((4′-Methyl-4-biphenyl)carbonyl)-1-piperazinyl]-2-oxoethyl]propenamide] | – | – | – | – | – | kinact/KI [1, 8]: INS; KI [1, 9]: INS; kinact [1, 9]: INS; solubility in assay conditions [2]: too insoluble in assay conditions |
| C=CC(=O)NCC(=O)N1CCN(C(=O)C2CC2)CC1 [Compound 6a, N-2-[4-[(Cyclopropanecarbonyl)-1-piperazinyl]-2-oxoethyl]propenamide] | 0.00593 | 23500 ± 6500 | 23500 ± 6500 | 15.2 ± 4.6 × 103 M-1min-1 | – | – |
| C=CC(=O)NCC(=O)N1CCN(C(=O)c2ccccc2Nc2ccccc2)CC1 [Compound 22c, N-2-[4-[(((2-Phenylamino)phenyl)carbonyl)-1-piperazinyl]-2-oxoethyl]propenamide] | 0.0119 | 6400 ± 700 | 6380 ± 700 | 112 ± 14 × 103 M-1min-1 | – | – |
| C=CC(=O)NCC(=O)N1CCN(C(=O)c2ccc(Nc3ccccc3)cc2)CC1 [Compound 22i, N-2-[4-[(((4-Phenylamino)phenyl)carbonyl)-1-piperazinyl]-2-oxoethyl]propenamide] | 0.0255 | 92800 ± 43300 | 92800 ± 43300 | 16.5 ± 9.4 × 103 M-1min-1 | – | – |
| C=CC(=O)NCC(=O)N1CCN(C(=O)C23CC4CC(CC(F)(C4)C2)C3)CC1 [Compound 25a, N-2-[4-[(3-Fluoroadamantanecarbonyl)-1-piperazinyl]-2-oxoethyl]propenamide] | – | 3150 ± 330 | 3150 ± 330 | – | – | – |

— PMC12631574, “Structure–activity relationships of hydrophobic small molecule irreversible inhibitors of tissue transglutaminase” (RSC Medicinal Chemistry, 2025)
